Read-outs that look alike come from different tables or passages of the source.
Legend:
[1] = molecular target: T1, full-length human ABHD2 (ABHD2^FL) (Homo sapiens, UniProt P08910); test: ABHD2^FL enzymatic activity assay with 7-HCA substrate; type: biochemical
T1 construct: TEV site-eGFP-8xHis (C, cleaved yes); made in house; host or cells: SF9 insect cells (baculovirus)
T1 sequence (P08910 1-425): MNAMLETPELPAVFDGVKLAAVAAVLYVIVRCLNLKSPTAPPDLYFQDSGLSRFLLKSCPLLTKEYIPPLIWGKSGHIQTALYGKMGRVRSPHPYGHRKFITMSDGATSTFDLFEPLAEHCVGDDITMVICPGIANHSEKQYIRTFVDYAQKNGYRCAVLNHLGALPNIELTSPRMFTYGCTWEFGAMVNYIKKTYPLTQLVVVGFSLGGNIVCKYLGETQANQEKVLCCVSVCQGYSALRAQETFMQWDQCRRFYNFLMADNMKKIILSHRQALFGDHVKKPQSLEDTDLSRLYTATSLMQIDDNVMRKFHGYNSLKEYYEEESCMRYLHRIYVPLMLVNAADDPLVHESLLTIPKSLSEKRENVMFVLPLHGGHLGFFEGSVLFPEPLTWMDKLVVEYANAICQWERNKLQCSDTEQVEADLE

[2] = molecular target: T2, ABHD2^L33–E425 (Homo sapiens, UniProt P08910); test: ABHD2^L33-E425 fluorometric enzymatic activity assay with 7-HCA substrate; type: biochemical
T2 construct: expression for ABHD2 amino acids L33–E425, in which a predicted transmembrane domain (amino acids 1–32) is removed; His6-FLAG (N); made in house; host or cells: E. coli BL21(DE3)-R3-pRARE2
T2 sequence (P08910 33-425): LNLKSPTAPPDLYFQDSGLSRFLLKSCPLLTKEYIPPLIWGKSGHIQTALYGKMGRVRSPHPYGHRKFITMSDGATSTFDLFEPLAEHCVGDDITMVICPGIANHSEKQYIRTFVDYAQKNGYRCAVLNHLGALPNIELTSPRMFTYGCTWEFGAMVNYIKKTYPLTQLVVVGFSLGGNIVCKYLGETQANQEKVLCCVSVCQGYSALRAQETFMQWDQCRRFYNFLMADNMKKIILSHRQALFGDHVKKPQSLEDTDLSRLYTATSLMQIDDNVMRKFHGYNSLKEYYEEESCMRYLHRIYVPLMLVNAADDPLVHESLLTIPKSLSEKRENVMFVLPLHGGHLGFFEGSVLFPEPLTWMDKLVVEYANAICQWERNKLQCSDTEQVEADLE

[3] = molecular target: T2, ABHD2^L33–E425; test: Differential scanning fluorimetry (DSF) with purified ABHD2^L33–E425; type: binding; details: for effect on heat-induced denaturation of ABHD2^L33–E425 (DSF binding): 40 µM steroid
[4] = molecular target: T3, human ABHD10 (Homo sapiens, UniProt Q9NUJ1); test: ABHD10 colorimetric assay with p-nitrophenyl butyrate; type: biochemical; details: 10 µM compound, 500 µM p-NPB
T3 construct: Constructs encoding amino acids T53—N306 of human ABHD10; His6-TEV site (N); made in house; host or cells: E. coli
T3 sequence (Q9NUJ1 53-306): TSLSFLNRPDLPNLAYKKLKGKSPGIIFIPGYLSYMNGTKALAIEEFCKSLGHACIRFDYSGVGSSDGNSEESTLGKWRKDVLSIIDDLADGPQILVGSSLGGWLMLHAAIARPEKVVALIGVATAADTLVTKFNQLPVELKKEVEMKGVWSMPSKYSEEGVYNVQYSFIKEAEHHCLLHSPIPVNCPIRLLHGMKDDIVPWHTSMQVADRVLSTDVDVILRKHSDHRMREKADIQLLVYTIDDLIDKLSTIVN
Method: (§1) Enzymatic activities of ABHD10 and ABHD11 were measured in a colorimetric assay using p-nitrophenyl butyrate (p-NPB) as substrate. Enzymes at 1500 nM ABHD10 and 125 nM ABHD11 in 20 mM HEPES pH 7.5, 150 mM NaCl, and 2% (v/v) DMSO were pre-incubated in 96-well plates with 50 µM test compound for 30 min at 4°C. Plates were then equilibrated at 37°C for 2 min, and reactions were initiated by adding 160 µl of pre-warmed substrate solution (same buffer with 625 µM p-NPB) to a total volume of 200 µl, yielding final assay concentrations of 300 nM ABHD10, 25 nM ABHD11, and 500 µM pNPB. The substrate solution was prepared immediately before addition to the enzyme mixtures. Absorbance at 405 nm was recorded on a SpectraMax iD3 plate reader (Molecular Devices) for 20 min with continuous monitoring at 30 s intervals.

[5] = molecular target: T4, human ABHD11 (Homo sapiens, UniProt Q8NFV4); test: ABHD11 colorimetric assay with p-nitrophenyl butyrate; type: biochemical; details: 10 µM compound, 500 µM p-NPB
T4 construct: residues V34—V315 of human ABHD11; His6-TEV site (N); made in house; host or cells: E. coli
T4 sequence (Q8NFV4 25-306 limits assumed): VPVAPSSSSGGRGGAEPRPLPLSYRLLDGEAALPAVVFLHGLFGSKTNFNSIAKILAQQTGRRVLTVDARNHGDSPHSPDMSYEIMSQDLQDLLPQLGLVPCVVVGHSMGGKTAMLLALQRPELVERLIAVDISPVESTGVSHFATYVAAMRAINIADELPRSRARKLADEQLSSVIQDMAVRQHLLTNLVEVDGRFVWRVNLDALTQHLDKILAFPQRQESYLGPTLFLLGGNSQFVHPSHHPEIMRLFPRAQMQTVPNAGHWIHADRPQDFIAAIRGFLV
Method: as §1

[6] = molecular target: T1, full-length human ABHD2 (ABHD2^FL); test: ABHD2^FL enzymatic activity assay with resorufin butyrate (RB) substrate; type: biochemical
[7] = tested on: CatSper; details: cited from earlier work
[8] = molecular target: T5, ABHD2^FL (Homo sapiens, UniProt P08910); test: Differential scanning fluorimetry (DSF) with purified ABHD2^FL; type: binding; details: 20 µM
T5 construct: TEV site-eGFP-8xHis (C, cleaved yes); made in house; host or cells: SF9 insect cells (baculovirus)
T5 sequence (P08910 1-425): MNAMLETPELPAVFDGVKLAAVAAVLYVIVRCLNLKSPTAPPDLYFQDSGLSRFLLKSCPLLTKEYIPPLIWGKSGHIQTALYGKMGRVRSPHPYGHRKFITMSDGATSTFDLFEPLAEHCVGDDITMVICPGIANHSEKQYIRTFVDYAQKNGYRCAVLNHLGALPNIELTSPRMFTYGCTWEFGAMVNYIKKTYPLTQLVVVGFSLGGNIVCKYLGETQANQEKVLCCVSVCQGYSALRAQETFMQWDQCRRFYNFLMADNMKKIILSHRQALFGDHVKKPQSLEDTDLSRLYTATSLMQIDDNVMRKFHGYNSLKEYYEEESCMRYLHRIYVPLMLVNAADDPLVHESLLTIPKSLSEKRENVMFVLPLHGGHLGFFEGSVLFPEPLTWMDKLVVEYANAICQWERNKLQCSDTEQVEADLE

[9] = tested on: human sperm; test: Sperm hyperactivation assay (CASA); type: cell-based; details: 3 µM, 30 min
Method: Sperm hyperactivation was assessed in human sperm purified by density gradient centrifugation. Semen samples (n = 7) were allowed to liquefy for 15–30 min at 37°C, and up to 2 ml of liquified semen was layered onto a two-step GM501 gradient system (45%/90%; Gynemed; Sierksdorf, Germany) pre-equilibrated at 37°C. Gradients were centrifuged for 20 min at 400 × g (no break). The 90% pellet was collected, washed in SpermActive medium (Gynemed; composition per manufacturer: NaCl, KCl, MgSO4.7H2O, KH2PO4, 1.77 mM CaCl2.2H2O, D(+)-glucose anhydrous, sodium pyruvate, sodium lactate, EDTA, alanyl-glutamine, essential and non-essential amino acids, 25.71 mM NaHCO3, 15 mM HEPES, 5 g/l human serum albumin, 10 mg/l gentamicin, and phenol red), and incubated for at least 2 h at 37°C, 5% CO2.
For compound testing, sperm suspensions with 7.5 × 10^6 sperm/ml in SpermActive were treated with either DMSO (vehicle) or 10 µM test compound. For basal and induced hyperactivation conditions, DMSO or progesterone (3 µM), respectively, was added. Samples were incubated for 30 min at 37°C, 5% CO2, before motility analysis.
Motility was analyzed using a CASA system (CEROSII^TM Animal Motility, software version 1.16; Hamilton Thorne, Beverly, MA, USA), mounted on an Axiolab 5 microscope (Zeiss, Germany), equipped with a TPi-SX Thermal Plate (Tokai Hit; Shizuoka-ken, Japan) and a JAI CM-040-GE CCD camera (JAI; Tokyo, Japan). Leja slides (20 µm chamber depth; Leja Products B.V., Nieuw-Vennep, The Netherlands) were pre-warmed to 37°C, cleaned with lens paper, and loaded by capillary action with 6 µl sperm suspension; capillary correction was set to 1.3. Sperm tracks were recorded at 37°C using a 10× negative-phase objective, acquiring 60 frames at 60 Hz with 4 ms exposure and gain set to 600. For each sample and condition, 300–500 motile sperm from at least 10 non-overlapping fields were analyzed. Hyperactive sperm were identified using the SORT function with the following Boolean argument: VCL > 150 µm/s and LIN < 50% and ALH > 7 µm. For each sample and condition, the percentage of hyperactive sperm was normalized to the percentage of motile sperm, and the mean of two technical duplicates was reported.
Statistical analysis was performed using GraphPad Prism 10 for Windows (version 10.6.1). Data normality was assessed using Shapiro–Wilk test. Differences between basal and induced hyperactivation were evaluated using a paired t-test, with effective pairing confirmed across all comparisons. P < 0.05 was considered statistically significant.

[10] = molecular target: the molecule itself; test: SEC; HiLoad 16/600 Superdex 75 pg, final purification step after nickel affinity; pure fractions concentrated in 20 mM HEPES pH 8, 500 mM NaCl, 10% (v/v) glycerol, 1 mM TCEP
[11] = 5 µM steroid or triterpenoid, 300 nM 7-HCA

Molecule: O=C(N1CCCCC1)N1CCCCC1c1ccccc1 (centres unmarked) [Compound 2]
- IC50 ([1]; Supplementary Table S2, read-out: IC50 measured in ABHD2^FL in the 7-HCA Assay): 0.49 µM
- IC50 ([2]; 10 nM enzyme, 10 µM 7-HCA, read-out: IC50 for ABHD2^L33-425, fluorometric assay using 7-HCA): 0.32 µM
- effect on melting temperature / thermal stability of ABHD2^L33-E425 (DSF), in words ([3]; 10 µM compound, 30 min pre-incubation): increased melting temperature
- ΔTm shift for ABHD2^L33-425 determined by DSF ([3]; purified protein): 13 °C
- inhibition of ABHD10 [4]: no detectable inhibition
- inhibition of ABHD11 [5]: no detectable inhibition

Molecule: CCCCCCCCCCC[C@@H](C[C@@H]1OC(=O)[C@H]1CCCCCC)OC(=O)[C@H](CC(C)C)NC=O [Orlistat]
- IC50 ([1]; 5 µM 7-HCA, read-out: IC50, ABHD2^FL, 7-HCA assay): 0.969 µM
- IC50 ([6]; 15 µM RB): 0.305 µM

Molecule: CCCC(=O)Oc1ccc2nc3ccc(=O)cc-3oc2c1 [RB, resorufin butyrate]
- Km ([6]; 25 nM ABHD2^FL, read-out: Km of substrate hydrolysis by ABHD2^FL): 23 µM

Molecule: C=C(C)[C@@H]1CC[C@]2(C)CC[C@]3(C)[C@H](CC[C@@H]4[C@@]5(C)CC[C@H](O)C(C)(C)[C@@H]5CC[C@]43C)[C@@H]12 [lupeol]
- effect on enzymatic activity of purified ABHD2^L33–E425 [2, 11]: weak inhibitory action
- effect on heat-induced denaturation of ABHD2^L33–E425 (DSF binding) ([3]; 30 min pre-incubation): did not affect
- progesterone-induced CatSper activation ([7]; ref Brenker et al., 2018, Rehfeld, 2020, Rehfeld and Marcus Pedersen, 2022): do not interfere
- progesterone-induced Ca2+ influx and hyperactivation ([7]; ref Mannowetz et al., 2017): inhibitors

Molecule: COC(=O)[C@]1(C)CC[C@]2(C)CC[C@]3(C)C4=CC=C5C(=CC(=O)C(O)=C5C)[C@]4(C)CC[C@@]3(C)[C@@H]2C1 [pristimerin]
- effect on enzymatic activity of purified ABHD2^FL [1]: did not affect
- effect on enzymatic activity of purified ABHD2^L33–E425 [2]: did not affect
- progesterone-induced Ca2+ influx and hyperactivation [7]: inhibitors
- progesterone-induced CatSper activation [7]: do not interfere

Molecule: CC(=O)[C@H]1CC[C@H]2[C@@H]3CCC4=CC(=O)CC[C@]4(C)[C@H]3CC[C@]12C [progesterone]
- effect on enzymatic activity of purified ABHD2^FL ([1]; 7-HCA and RB substrates (Suppl. Fig. S4A,B), weak effects at ≥5 µM): did not alter
- effect on enzymatic activity of purified ABHD2^L33–E425 [2, 11]: did not alter
- effect on heat-induced denaturation of ABHD2^L33–E425 (DSF binding) ([3]; 30 min pre-incubation): did not affect
- effect on heat-induced denaturation of ABHD2^FL (DSF binding) [8]: did not affect
- fraction of hyperactivated sperm upon stimulation [9]: increased

B1: Truncated ABHD2 (ABHD2^L33–E425) (domain or fragment, human, UniProt P08910 33-425, looked up)
chain: LNLKSPTAPPDLYFQDSGLSRFLLKSCPLLTKEYIPPLIWGKSGHIQTALYGKMGRVRSPHPYGHRKFITMSDGATSTFDLFEPLAEHCVGDDITMVICPGIANHSEKQYIRTFVDYAQKNGYRCAVLNHLGALPNIELTSPRMFTYGCTWEFGAMVNYIKKTYPLTQLVVVGFSLGGNIVCKYLGETQANQEKVLCCVSVCQGYSALRAQETFMQWDQCRRFYNFLMADNMKKIILSHRQALFGDHVKKPQSLEDTDLSRLYTATSLMQIDDNVMRKFHGYNSLKEYYEEESCMRYLHRIYVPLMLVNAADDPLVHESLLTIPKSLSEKRENVMFVLPLHGGHLGFFEGSVLFPEPLTWMDKLVVEYANAICQWERNKLQCSDTEQVEADLE
notes: human ABHD2 (alpha/beta hydrolase domain-containing protein 2), Uniprot ID P08910, amino acids L33-E425; the predicted transmembrane domain (amino acids 1-32) is removed; No tag cleavage is described; Further construct details may be in the Supplementary Materials and Methods; also called ABHD2^L33-425; ABHD2 amino acids L33–E425; source: E. coli BL21(DE3)-R3-pRARE2, purified (nickel-sepharose, …)
- stoichiometry N [10]: 4
